According to patent US20230159532A1, “PARATHYROID HORMONE (PTH) RECEPTOR ANTAGONISTS AND USES THEREOF” (Crinetics Pharmaceuticals, Inc., priority 2021, published 2023):
pKi: −log10 of the molar value.

These molecules were tested against T1, human PTHR1 receptor (Homo sapiens, UniProt Q03431) (assay: Competitive antagonist binding assay for hPTH-R1 (radioactive competition binding, SPA beads)). Conditions: human PTHR1 membranes, [125I]-[Nle8,18,Tyr34]-PTH(1-34) 0.2 nM, 90 minutes at room temperature; read-out: hPTHR1 Ki.
T1 construct: purchased Eurofins HTS030M
T1 sequence (Q03431 27-593): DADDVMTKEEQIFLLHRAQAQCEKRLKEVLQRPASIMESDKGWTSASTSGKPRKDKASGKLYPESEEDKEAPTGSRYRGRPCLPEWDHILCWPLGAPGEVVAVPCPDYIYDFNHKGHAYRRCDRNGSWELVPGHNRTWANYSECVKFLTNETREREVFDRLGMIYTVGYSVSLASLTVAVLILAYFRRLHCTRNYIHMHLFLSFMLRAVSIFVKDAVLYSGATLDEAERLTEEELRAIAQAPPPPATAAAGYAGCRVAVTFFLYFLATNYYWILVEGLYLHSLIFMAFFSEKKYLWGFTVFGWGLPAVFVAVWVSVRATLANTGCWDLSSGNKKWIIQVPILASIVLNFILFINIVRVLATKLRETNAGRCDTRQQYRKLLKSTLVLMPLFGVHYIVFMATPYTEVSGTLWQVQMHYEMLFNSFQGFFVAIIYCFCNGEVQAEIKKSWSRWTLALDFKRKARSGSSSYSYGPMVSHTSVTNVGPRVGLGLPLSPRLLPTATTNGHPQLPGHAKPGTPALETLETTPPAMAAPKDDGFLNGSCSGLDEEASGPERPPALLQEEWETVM
Procedure, shortened: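 Displacement of 0.2 nM radioiodinated [Nle8,18,Tyr34]-PTH(1-34) from membrane-bound human PTHR1 measured by scintillation proximity after 90 min at room temperature. Compounds typically 0-10,000 nM final, pH 7.4 HEPES/Mg/Ca buffer with BSA and detergent. Ki calculated from competition data.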

pKi, > 7.00:
C[C@@H](CO)NCCNc1cc(F)c(N2C(=O)N(C)c3ncc(Cl)cc3-c3ccc(C#N)cc32)c(F)c1 [1-205, 4-chloro-10-{2,6-difluoro-4-[(2-{[(2S)-1-hydroxypropan-2-yl]amino}ethyl)amino]phenyl}-8-methyl-9-oxo-6,8,10-triazatricyclo[9.4.0.0^2,7]pentadeca-1(11),2(7),3,5,12,14-hexaene-13-carbonitrile]
CCN1C(=O)N(c2c(F)cc(NCCN[C@H]3C[C@H](C(=O)O)C3)cc2F)c2cc(C#N)ccc2-c2cc(Cl)cnc21 [1-206, (1r,3r)-3-({2-[(4-{4-chloro-13-cyano-8-ethyl-9-oxo-6,8,10-triazatricyclo[9.4.0.0^2,7]pentadeca-1(11),2(7),3,5,12,14-hexaen-10-yl}-3,5-difluorophenyl)amino]ethyl}amino)cyclobutane-1-carboxylic acid]
CCN1C(=O)N(c2c(F)cc(NCCN[C@H]3C[C@@H](O)C3)cc2F)c2cc(C#N)ccc2-c2cc(C(F)(F)F)cnc21 [1-207, 10-{2,6-difluoro-4-[(2-{[(1s,3s)-3-hydroxycyclobutyl]amino}ethyl)amino]phenyl}-8-ethyl-9-oxo-4-(trifluoromethyl)-6,8,10-triazatricyclo[9.4.0.0^2,7]pentadeca-1(11),2(7),3,5,12,14-hexaene-13-carbonitrile]
CCN1C(=O)N(c2c(F)cc(NCCNCCO)cc2F)c2cc(C#N)ccc2-c2cc(C)cnc21 [1-208, 10-[2,6-difluoro-4-({2-[(2-hydroxyethyl)amino]ethyl}amino)phenyl]-8-ethyl-4-methyl-9-oxo-6,8,10-triazatricyclo[9.4.0.0^2,7]pentadeca-1(11),2(7),3,5,12,14-hexaene-13-carbonitrile]
CCN1C(=O)N(c2c(F)cc(NCCNCCC(C)(C)C(=O)O)cc2F)c2cc(C#N)ccc2-c2cc(Cl)cnc21 [1-209, 4-({2-[(4-{4-chloro-13-cyano-8-ethyl-9-oxo-6,8,10-triazatricyclo[9.4.0.0^2,7]pentadeca-1(11),2(7),3,5,12,14-hexaen-10-yl}-3,5-difluorophenyl)amino]ethyl}amino)-2,2-dimethylbutanoic acid]
CCN1C(=O)N(c2c(F)cc(NCCN[C@@H](CO)C(=O)O)cc2F)c2cc(C#N)ccc2-c2cc(Cl)cnc21 [1-210, (2S)-2-({2-[(4-{4-chloro-13-cyano-8-ethyl-9-oxo-6,8,10-triazatricyclo[9.4.0.0^2,7]pentadeca-1(11),2(7),3,5,12,14-hexaen-10-yl}-3,5-difluorophenyl)amino]ethyl}amino)-3-hydroxypropanoic acid]
CC(C)N1C(=O)N(c2c(F)cc(N3CC[C@@H](N)C3)cc2F)c2cc(C#N)cc(F)c2-c2cc(F)cnc21 [1-212, 10-{4-[(3R)-3-aminopyrrolidin-1-yl]-2,6-difluorophenyl}-4,15-difluoro-9-oxo-8-(propan-2-yl)-6,8,10-triazatricyclo[9.4.0.0^2,7]pentadeca-1(15),2(7),3,5,11,13-hexaene-13-carbonitrile]
CCN1C(=O)N(c2c(F)cc(NCCN[C@@H](C)CO)cc2F)c2cc(C#N)ccc2-c2cc(F)cnc21 [1-213, 10-{2,6-difluoro-4-[(2-{[(2S)-1-hydroxypropan-2-yl]amino}ethyl)amino]phenyl}-8-ethyl-4-fluoro-9-oxo-6,8,10-triazatricyclo[9.4.0.0^2,7]pentadeca-1(11),2(7),3,5,12,14-hexaene-13-carbonitrile]
CCN1C(=O)N(c2c(F)cc(NCCN[C@H](C)CO)cc2F)c2cc(C#N)ccc2-c2cc(F)cnc21 [1-214, 10-{2,6-difluoro-4-[(2-{[(2R)-1-hydroxypropan-2-yl]amino}ethyl)amino]phenyl}-8-ethyl-4-fluoro-9-oxo-6,8,10-triazatricyclo[9.4.0.0^2,7]pentadeca-1(11),2(7),3,5,12,14-hexaene-13-carbonitrile]
CCN1C(=O)N(c2c(F)cc(NCCNCC(=O)O)cc2F)c2cc(C#N)ccc2-c2cc(Cl)cnc21 [1-215, 2-({2-[(4-{4-chloro-13-cyano-8-ethyl-9-oxo-6,8,10-triazatricyclo[9.4.0.0^2,7]pentadeca-1(11),2(7),3,5,12,14-hexaen-10-yl}-3,5-difluorophenyl)amino]ethyl}amino)acetic acid]
CCN1C(=O)N(c2c(F)cc(NCCNCCNC(=O)OC)cc2F)c2cc(C#N)ccc2-c2cc(F)cnc21 [1-216, methyl N-[2-({2-[(4-{13-cyano-8-ethyl-4-fluoro-9-oxo-6,8,10-triazatricyclo[9.4.0.0^2,7]pentadeca-1(11),2(7),3,5,12,14-hexaen-10-yl}-3,5-difluorophenyl)amino]ethyl}amino)ethyl]carbamate]
CCN1C(=O)N(c2c(F)cc(NCCN[C@@H]3CC[C@H]3O)cc2F)c2cc(C#N)ccc2-c2cc(F)cnc21 [1-218, 10-{2,6-difluoro-4-[(2-{[(1R,2R)-2-hydroxycyclobutyl]amino}ethyl)amino]phenyl}-8-ethyl-4-fluoro-9-oxo-6,8,10-triazatricyclo[9.4.0.0^2,7]pentadeca-1(11),2(7),3,5,12,14-hexaene-13-carbonitrile]
CCN1C(=O)N(c2c(F)cc(NCCN[C@@H](C)C(=O)O)cc2F)c2cc(C#N)ccc2-c2cc(Cl)cnc21 [1-219, (2S)-2-({2-[(4-{4-chloro-13-cyano-8-ethyl-9-oxo-6,8,10-triazatricyclo[9.4.0.0^2,7]pentadeca-1(11),2(7),3,5,12,14-hexaen-10-yl}-3,5-difluorophenyl)amino]ethyl}amino)propanoic acid]
CCN1C(=O)N(c2c(F)cc(NCCN[C@H](CO)C(=O)O)cc2F)c2cc(C#N)ccc2-c2cc(Cl)cnc21 [1-220, (2R)-2-({2-[(4-{4-chloro-13-cyano-8-ethyl-9-oxo-6,8,10-triazatricyclo[9.4.0.0^2,7]pentadeca-1(11),2(7),3,5,12,14-hexaen-10-yl}-3,5-difluorophenyl)amino]ethyl}amino)-3-hydroxypropanoic acid]
CCN1C(=O)N(c2c(F)cc(NCCNCCCS(=O)(=O)O)cc2F)c2cc(C#N)ccc2-c2cc(F)cnc21 [1-221, 3-({2-[(4-{13-cyano-8-ethyl-4-fluoro-9-oxo-6,8,10-triazatricyclo[9.4.0.0^2,7]pentadeca-1(11),2(7),3,5,12,14-hexaen-10-yl}-3,5-difluorophenyl)amino]ethyl}amino)propane-1-sulfonic acid]
CCN1C(=O)N(c2c(F)cc(NCCN[C@H]3C[C@H](O)C3)cc2F)c2cc(C#N)ccc2-c2cc(F)cnc21 [1-222, 10-{2,6-difluoro-4-[(2-{[(1r,3r)-3-hydroxycyclobutyl]amino}ethyl)amino]phenyl}-8-ethyl-4-fluoro-9-oxo-6,8,10-triazatricyclo[9.4.0.0^2,7]pentadeca-1(11),2(7),3,5,12,14-hexaene-13-carbonitrile]
CN1C(=O)N(c2c(F)cc(NCCN)cc2F)c2cc(C#N)ccc2-c2cc(Cl)cnc21 [1-223, 10-{4-[(2-aminoethyl)amino]-2,6-difluorophenyl}-4-chloro-8-methyl-9-oxo-6,8,10-triazatricyclo[9.4.0.0^2,7]pentadeca-1(11),2(7),3,5,12,14-hexaene-13-carbonitrile]
